According to patent publication US20160332971A1, “ARYLQUINOLINE, ARYLQUINOLONE AND ARYLTHIOQUINOLONE DERIVATIVES AND USE THEREOF TO TREAT CANCER” (UNIVERSITY OF KENTUCKY RESEARCH FOUNDATION, priority 2015, published 2016):

Key:
hERG potassium channel = hERG potassium channel (Homo sapiens, UniProt Q12809)
Source text: hERG Binding studies, An HEK-293 cell line stably expressing the hERG potassium channel (accession number U04270) referred to as hERG-HEK cells were received at passage 11 (P11) from Millipore (CYL3006, lot 2, Billerica, Mass.). [^3H]-Dofetilide (specific activity of 80 Ci/mmol; labeled on the N-methyl group) was obtained from American Radiolabeled Chemicals (St. Louis, Mo.). Other chemicals and solvents were obtained from Sigma-Aldrich (Milwaukee, Wis.). Polyethylenimine (PEI) was obtained from Fluka/Sigma-Aldrich (St. Louis, Mo.), and Minimium Essential Medium (MEM) with GlutaMAX™ and phenol red, MEM non-essential amino acids solution (NEAA, 100×), G418 disulfate salt solution, fetal bovine serum (FBS), 0.05% Trypsin-EDTA 1× with phenol red, and Hank's balanced salt solution (HBSS) were obtained from Life Technologies (Carlsbad, Calif.).
hERG-HEK Cell culture. hERG-FIEK Cells were cultured according to the protocol provided by Millipore. Cells were maintained in MEM (with glutamax and phenol red) supplemented with 10% […], 1% NEAA and […], and incubated at 37 ° C. in a humidified atmosphere with 5% CO2. Frozen aliquots of cells were transferred into T-75 cm^2 flasks and allowed to adhere for 4-8 h. The medium was replaced every 2 days. Passages were carried out at least 3 times after thawing at 6 day intervals. Cells were dissociated with trypsin/EDTA and seeded into new 150×25 mm dishes at 2-3×10^6 cells per dish and placed at 30° C., 5% CO2, for 40-48 h prior to membrane preparation. Membrane preparation occurred 6 days after the last passage (passage 20).
Membrane preparation. Cell membrane preparation was based on previous methods. See Herrmann, et al. J Mol Biol 1996, 264:933-953; Lavie, et al. J Org Chem 1965, 30(6):1774-1778; Chen, et al. A Practical Guide to Assay Development and High-throughput Screening in Drug Discovery, CRC Press Taylor and Francis Group, Boca Raton, Fla., 2010; Redfern, et al. Cardiovasc Res 2003, 58, 32-45. Cells were rinsed twice with HBSS at 37° C. and collected by scraping the dishes in 20 mL of ice-cold 0.32 M sucrose and homogenized on ice with a Teflon pestle using a Maximal Digital homogenizer (Fisher Scientific, Pittsburgh, Pa.) at 280 rpm for 30 sec. Homogenates were centrifuged at 300 g and 800 g for 4 min each at 4° C. Pellets were resuspended in 9 mL of ice-cold Milli-Q water and osmolarity restored by addition of 1 mL of 500 mM Tris buffer (pH 7.4) followed by suspension and centrifugation at 20,000 g for 30 min at 4° C. Pellets were homogenized in 2 mL assay buffer (50 mM Tris, 10 mM KCl, and 1 mM MgCl2, 4° C.) and aliquots of cell membrane suspensions were stored at −80° C. and thawed the day of the [^3H]-dofetilide binding assay. Protein content was determined prior to the assay using a Bradford protein assay with bovine albumin as the standard.
[^3H]-Dofetilide binding assay. [^3H]-Dofetilide binding assays using hERG-HEK293 cell membranes were based on previous methods. Redfern, et al. Cardiovasc Res 2003, 58, 32-45. Assays determining concentration-response were conducted in duplicate, and three independent assays were performed for each analog evaluated. […] Radioactivity was determined by liquid scintillation spectrometry using the Tri-Carb 2100-TR Liquid Scintillation Analyzer (Perkin-Elmer Life and Analytical Sciences) […]

[1] = tested on: Par-4 secretion from mouse fibroblasts; experiment: Par-4 secretion into conditioned medium, quantitative Western blot normalised to CollA1; assay type: cell-based; conditions: for Ratio of Par-4 Secretion by Arylquin 1 Relative to Vehicle / Par-4 secretory activity (in words): 500 nM; for Relative Levels of Par-4 Secretion by Arylquins Administered at 500 nM: 24 h, mouse fibroblasts, CM; for Par-4 secretory activity (in words): SAR discussion
Method: Calibration curve developed using fixed amounts (0.05-5 ng) of recombinant TRX-Par-4. […] Therefore the concentration was 0.82 ng/40 μL or 540 pM, In the same fashion, calculation for Par-4 concentration using vehicle (v) was 280 pM.
Biological activity of 3-Arylquinolines. […] After 24 h exposure, the CM and lysates were subjected to quantitative Western blot analysis for Par-4 and collagen (CollA1).
Co-immunoprecipitation and Western blot analysis. Protein extracted from cell lysates was filtered, pre-cleared with 25 μL (bed volume) of protein G-Sepharose beads and immunoprecipitated with 1 μg of respective antibodies. The eluted proteins were resolved by SDS-PAGE, and subjected to Western blot analysis as described previously. Bensch, et al. Nature 1968, 218(5147):1176-1177.
Statistical analyses. All experiments were performed in triplicate to verify the reproducibility of the findings. […] Statistical analyses were carried out with Statistical Analysis System software (SAS Institute, Cary, N.C.) and P values were calculated using the Student t test.

hERG potassium channel, sequence (Q12809 whole entry): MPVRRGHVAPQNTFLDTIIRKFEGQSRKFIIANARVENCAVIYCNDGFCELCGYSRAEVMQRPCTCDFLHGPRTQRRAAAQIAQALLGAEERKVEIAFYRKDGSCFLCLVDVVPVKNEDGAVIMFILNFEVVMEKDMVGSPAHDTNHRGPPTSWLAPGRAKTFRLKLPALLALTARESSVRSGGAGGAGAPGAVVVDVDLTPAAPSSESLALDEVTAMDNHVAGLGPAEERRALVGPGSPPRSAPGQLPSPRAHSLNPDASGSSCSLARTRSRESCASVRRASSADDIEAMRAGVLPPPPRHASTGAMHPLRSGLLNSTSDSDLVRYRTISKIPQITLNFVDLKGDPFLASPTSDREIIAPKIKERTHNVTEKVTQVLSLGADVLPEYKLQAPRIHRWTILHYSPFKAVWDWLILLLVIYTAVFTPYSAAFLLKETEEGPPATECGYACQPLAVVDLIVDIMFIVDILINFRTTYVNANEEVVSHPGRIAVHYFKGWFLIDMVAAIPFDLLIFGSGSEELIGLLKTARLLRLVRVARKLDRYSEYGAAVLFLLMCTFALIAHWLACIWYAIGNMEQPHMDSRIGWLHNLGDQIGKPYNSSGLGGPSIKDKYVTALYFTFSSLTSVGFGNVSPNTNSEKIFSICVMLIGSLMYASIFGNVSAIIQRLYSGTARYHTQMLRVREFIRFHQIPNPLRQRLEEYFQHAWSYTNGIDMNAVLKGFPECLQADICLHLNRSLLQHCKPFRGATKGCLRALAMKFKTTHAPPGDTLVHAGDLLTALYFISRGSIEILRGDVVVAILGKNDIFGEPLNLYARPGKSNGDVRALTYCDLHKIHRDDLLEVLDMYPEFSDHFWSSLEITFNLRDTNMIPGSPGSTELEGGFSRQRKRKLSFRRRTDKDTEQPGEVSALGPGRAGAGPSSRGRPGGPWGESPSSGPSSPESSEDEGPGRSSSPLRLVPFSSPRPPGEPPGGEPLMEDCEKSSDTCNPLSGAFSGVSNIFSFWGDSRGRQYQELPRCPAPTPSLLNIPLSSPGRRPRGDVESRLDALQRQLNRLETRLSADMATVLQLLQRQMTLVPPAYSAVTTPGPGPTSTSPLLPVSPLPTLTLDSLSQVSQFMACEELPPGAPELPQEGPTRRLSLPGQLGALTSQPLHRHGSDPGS

Compound	IC50 (hERG potassium channel) [µM]	Ratio of Par-4 Secretion by Arylquin 1 Relative to Vehicle ([1]; Table 2)	Relative Levels of Par-4 Secretion by Arylquins Administered at 500 nM ([1]; Table 2)	Par-4 secretory activity (in words) [1]	Relative Levels of Par-4 Secretion by Arylquins Administered at 500 nM ([1]; Table 1)
CN(C)c1ccc2cc(-c3ccccc3F)c(N3CCOCC3)nc2c1 [Arylquin 13a, 3-(2-Fluorophenyl)-NA-dimethyl-2-morpholinoquinolin-7-amine]	23.3 ± 3.05	1.8	54.4 ± 2.8	diminished activity to varying degrees	–
Nc1nc2ccccc2cc1-c1ccccc1F [Arylquin 15a]	14.6 ± 5.82	2.8	82.1 ± 21.2	decreased Par-4 secretory activity only slightly	–
CN(C)c1ccc2cc(-c3ccc(F)cc3)c(N)nc2c1 [Arylquin 1f]	30.2 ± 10.3	–	–	weakly active	12.3 ± 2.0
CN(C)c1ccc2cc(-c3ccccc3F)c(=S)[nH]c2c1 [Arylquin 10]	> 100	1.7	51.7 ± 4.9	diminished Par-4 secretory activity relative to arylquinoline 1a	–
CN(C)c1ccc2cc(-c3cccc(F)c3)c(N)nc2c1 [Arylquin 1d]	1.59 ± 0.39	–	–	weakly active	66.8 ± 10.9
